The values that follow come from ChEMBL document CHEMBL1201862, “PubChem BioAssay data set” (2004).

The target of experiment [1] is NAD-dependent protein deacylase sirtuin-5, mitochondrial (Homo sapiens, UniProt Q9NXA8). Briefly: SIRT5 desuccinylase inhibitors, dose response, biochemical, fluorescence imaging, cherry-pick, set 5 (AID 720591).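 Further: desuccinylation of succinyl peptide AMC substrate read as fluorescence after trypsin release; potency of inhibitors that lower fluorescence and may act on trypsin instead.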
Chain of NAD-dependent protein deacylase sirtuin-5, mitochondrial (Q9NXA8 whole entry): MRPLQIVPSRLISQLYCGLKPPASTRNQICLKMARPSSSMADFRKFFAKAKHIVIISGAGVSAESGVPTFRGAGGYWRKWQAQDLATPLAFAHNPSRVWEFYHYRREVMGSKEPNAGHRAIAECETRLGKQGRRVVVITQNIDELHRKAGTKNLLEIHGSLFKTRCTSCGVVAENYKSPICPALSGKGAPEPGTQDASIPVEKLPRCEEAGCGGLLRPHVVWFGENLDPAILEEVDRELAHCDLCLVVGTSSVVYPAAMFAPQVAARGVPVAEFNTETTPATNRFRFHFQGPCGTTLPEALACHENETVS
The target in a further experiment is T1, Exodeoxyribonuclease V (Escherichia coli (strain K12), UniProt P04993+P07648+P08394).
T1 sequence (P04993 whole entry): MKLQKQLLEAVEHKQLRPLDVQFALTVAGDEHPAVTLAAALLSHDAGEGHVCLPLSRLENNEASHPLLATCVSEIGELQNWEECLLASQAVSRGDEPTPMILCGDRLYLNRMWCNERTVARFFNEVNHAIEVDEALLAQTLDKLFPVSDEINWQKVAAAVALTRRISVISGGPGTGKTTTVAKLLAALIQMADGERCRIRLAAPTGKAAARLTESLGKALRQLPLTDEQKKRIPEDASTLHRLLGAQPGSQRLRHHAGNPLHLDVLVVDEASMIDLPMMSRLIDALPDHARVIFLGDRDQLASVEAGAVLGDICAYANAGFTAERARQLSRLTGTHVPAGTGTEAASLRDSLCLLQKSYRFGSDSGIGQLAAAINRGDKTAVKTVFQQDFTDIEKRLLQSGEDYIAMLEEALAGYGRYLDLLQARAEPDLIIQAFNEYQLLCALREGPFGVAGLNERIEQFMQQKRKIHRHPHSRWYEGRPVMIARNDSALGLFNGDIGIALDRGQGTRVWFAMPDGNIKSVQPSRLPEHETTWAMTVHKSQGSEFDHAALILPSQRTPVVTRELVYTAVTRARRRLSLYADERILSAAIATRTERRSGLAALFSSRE
T1 sequence (P07648 whole entry): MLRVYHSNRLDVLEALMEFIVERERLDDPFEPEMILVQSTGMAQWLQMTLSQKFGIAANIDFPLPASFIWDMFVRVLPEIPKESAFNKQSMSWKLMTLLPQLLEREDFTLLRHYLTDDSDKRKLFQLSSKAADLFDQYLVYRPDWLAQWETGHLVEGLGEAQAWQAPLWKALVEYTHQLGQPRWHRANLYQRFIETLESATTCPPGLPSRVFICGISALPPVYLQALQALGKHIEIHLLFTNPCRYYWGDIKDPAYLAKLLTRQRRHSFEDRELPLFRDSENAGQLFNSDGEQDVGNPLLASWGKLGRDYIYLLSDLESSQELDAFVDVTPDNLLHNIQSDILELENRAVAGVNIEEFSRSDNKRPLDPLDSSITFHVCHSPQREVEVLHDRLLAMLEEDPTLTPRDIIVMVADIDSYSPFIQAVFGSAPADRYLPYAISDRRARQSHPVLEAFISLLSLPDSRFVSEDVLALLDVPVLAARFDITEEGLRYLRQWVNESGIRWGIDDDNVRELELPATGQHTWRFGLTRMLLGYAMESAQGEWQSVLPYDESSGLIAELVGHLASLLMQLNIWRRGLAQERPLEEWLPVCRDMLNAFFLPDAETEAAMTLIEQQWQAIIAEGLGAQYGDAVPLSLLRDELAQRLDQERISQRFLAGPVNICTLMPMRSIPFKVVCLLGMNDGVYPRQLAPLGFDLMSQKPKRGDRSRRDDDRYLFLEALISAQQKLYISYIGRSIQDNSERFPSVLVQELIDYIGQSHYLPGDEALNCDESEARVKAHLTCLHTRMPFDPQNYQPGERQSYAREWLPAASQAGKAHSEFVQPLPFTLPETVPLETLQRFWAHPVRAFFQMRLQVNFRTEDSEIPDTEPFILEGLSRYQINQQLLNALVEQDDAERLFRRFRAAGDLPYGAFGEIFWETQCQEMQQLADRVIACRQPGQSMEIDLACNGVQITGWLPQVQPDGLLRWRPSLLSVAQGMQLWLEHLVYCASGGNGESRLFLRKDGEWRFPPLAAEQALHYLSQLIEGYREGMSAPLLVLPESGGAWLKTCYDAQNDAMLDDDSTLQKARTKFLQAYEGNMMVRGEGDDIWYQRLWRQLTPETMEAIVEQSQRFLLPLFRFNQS
T1 sequence (P08394 whole entry): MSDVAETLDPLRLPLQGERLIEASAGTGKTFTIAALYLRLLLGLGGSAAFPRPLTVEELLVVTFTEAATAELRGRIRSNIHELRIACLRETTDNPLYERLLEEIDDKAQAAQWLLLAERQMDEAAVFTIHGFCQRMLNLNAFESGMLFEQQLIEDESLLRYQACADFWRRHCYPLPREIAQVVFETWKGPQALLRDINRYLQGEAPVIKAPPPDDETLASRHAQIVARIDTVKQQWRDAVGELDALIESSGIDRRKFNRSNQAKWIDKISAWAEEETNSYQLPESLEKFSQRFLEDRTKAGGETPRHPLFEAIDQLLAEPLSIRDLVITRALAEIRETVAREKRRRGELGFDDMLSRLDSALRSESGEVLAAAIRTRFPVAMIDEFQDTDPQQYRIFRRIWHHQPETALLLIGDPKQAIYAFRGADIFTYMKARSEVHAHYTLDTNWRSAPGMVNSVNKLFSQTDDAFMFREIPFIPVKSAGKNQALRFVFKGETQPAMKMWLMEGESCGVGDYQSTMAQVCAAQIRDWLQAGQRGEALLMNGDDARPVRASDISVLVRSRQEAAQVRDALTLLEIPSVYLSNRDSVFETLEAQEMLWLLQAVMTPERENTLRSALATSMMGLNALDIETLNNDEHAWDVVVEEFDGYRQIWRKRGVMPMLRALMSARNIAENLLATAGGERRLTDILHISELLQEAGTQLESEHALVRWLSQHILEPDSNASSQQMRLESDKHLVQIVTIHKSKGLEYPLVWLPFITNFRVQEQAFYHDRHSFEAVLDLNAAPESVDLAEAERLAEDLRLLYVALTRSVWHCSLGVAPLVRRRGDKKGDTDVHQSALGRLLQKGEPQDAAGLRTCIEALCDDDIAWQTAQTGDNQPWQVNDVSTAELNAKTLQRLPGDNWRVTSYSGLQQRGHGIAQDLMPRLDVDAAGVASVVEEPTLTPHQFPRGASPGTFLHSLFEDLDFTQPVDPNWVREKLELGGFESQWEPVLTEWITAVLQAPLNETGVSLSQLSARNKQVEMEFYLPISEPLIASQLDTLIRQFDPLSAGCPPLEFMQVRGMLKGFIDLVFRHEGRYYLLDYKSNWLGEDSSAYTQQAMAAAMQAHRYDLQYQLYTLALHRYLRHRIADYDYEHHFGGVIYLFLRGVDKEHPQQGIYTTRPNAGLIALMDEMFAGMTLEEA
The experiment is described as follows: E. coli RecBCD inhibitors, dose response, counter-screen for AddAB inhibitor project, absorbance, V66 E. coli, mutant T4 phage (AID 492957). It counts as functional, cell-based, Escherichia coli str. K-12 substr. MG1655. Background: A counterscreen serves to expose hits that act by an unwanted route or on another target.

Molecules are shown by their SMILES. Calls of active or inactive are those of the source.

In general, AC50 refers to the concentration at which the activity in the assay is half-maximal. For the molecule `NS(=O)(=O)c1cc(C(=O)NC2CCSc3ccccc32)ccc1Cl` (configuration not stated), in experiment [1], the AC50 is 6.65 µM (active).

Usually IC50 stands for the concentration that gives 50% inhibition. Turning to `O=C1c2ccccc2C(=O)c2[nH]c(O)nc21`, the IC50 on Exodeoxyribonuclease V is > 119 µM (inactive).
